According to paper PMC3759966 (The Biochemical journal, 2009):

Assays:
[1] = test system: phosphorylation of MYPT at Thr850; test: MYPT Thr850 phosphorylation in HEK-293 cells; format: cell-based, human; conditions: 10 μM, 1 h; HEK-293 cells with or without G14V-Rho
[2] = test system: ERM protein phosphorylation (site equivalent to Thr567 of ezrin); test: ERM protein phosphorylation in HEK-293 cells; format: cell-based, human; conditions: 10 μM, 1 h; in the presence or absence of G14V-Rho
[3] = test system: panel of 85 protein kinases; test: Selectivity over kinase panel; format: biochemical; conditions: 1 μM; out of the 85 kinases profiled
[4] = molecular target: T1, GST–LRRK2[G2019S]-(1326–2527) (Homo sapiens, UniProt Q5S007, G2019S); test: Peptide kinase assay with inhibitors; format: biochemical; conditions: for inhibition of LRRK2[G2019S] (in words): 100 μM ATP
T1 sequence (Q5S007 1326-2527 G2019S): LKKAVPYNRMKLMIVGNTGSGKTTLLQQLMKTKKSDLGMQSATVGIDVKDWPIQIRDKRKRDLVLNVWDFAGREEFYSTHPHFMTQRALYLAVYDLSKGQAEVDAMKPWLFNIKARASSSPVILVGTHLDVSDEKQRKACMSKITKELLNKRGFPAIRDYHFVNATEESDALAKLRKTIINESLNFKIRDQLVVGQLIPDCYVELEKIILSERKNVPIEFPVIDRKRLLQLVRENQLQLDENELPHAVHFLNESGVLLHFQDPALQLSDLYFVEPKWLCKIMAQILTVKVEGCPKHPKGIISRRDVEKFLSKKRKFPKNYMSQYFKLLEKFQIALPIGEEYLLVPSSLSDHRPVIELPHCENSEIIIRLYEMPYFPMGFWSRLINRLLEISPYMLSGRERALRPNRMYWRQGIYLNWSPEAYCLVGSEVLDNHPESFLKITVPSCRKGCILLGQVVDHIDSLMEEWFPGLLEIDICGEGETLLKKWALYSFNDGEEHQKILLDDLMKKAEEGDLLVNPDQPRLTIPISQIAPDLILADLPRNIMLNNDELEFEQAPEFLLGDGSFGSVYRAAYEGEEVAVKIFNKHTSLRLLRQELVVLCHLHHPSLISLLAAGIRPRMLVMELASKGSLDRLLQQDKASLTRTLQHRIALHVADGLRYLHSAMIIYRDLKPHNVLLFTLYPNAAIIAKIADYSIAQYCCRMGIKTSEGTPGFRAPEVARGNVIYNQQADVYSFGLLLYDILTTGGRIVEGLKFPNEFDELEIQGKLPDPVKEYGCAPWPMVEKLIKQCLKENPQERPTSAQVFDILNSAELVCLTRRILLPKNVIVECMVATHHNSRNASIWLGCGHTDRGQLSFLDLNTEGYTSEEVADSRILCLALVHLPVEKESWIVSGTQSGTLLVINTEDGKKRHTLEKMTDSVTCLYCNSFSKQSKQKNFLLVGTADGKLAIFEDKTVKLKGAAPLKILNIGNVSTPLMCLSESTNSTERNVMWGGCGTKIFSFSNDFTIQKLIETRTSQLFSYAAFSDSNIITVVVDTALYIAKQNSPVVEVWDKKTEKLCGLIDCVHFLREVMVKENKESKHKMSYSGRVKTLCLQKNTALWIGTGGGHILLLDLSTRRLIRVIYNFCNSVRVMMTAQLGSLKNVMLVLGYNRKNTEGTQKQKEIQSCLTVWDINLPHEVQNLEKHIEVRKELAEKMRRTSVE

[5] = molecular target: endogenous LRRK2 from Swiss-3T3 cells (Mus musculus, UniProt Q5S006); test: Kinase assay of immunoprecipitated endogenous LRRK2 with Nictide; format: biochemical; conditions: Swiss-3T3 immunoprecipitates, Nictide substrate
Sequence of endogenous LRRK2 from Swiss-3T3 cells (Q5S006 whole entry): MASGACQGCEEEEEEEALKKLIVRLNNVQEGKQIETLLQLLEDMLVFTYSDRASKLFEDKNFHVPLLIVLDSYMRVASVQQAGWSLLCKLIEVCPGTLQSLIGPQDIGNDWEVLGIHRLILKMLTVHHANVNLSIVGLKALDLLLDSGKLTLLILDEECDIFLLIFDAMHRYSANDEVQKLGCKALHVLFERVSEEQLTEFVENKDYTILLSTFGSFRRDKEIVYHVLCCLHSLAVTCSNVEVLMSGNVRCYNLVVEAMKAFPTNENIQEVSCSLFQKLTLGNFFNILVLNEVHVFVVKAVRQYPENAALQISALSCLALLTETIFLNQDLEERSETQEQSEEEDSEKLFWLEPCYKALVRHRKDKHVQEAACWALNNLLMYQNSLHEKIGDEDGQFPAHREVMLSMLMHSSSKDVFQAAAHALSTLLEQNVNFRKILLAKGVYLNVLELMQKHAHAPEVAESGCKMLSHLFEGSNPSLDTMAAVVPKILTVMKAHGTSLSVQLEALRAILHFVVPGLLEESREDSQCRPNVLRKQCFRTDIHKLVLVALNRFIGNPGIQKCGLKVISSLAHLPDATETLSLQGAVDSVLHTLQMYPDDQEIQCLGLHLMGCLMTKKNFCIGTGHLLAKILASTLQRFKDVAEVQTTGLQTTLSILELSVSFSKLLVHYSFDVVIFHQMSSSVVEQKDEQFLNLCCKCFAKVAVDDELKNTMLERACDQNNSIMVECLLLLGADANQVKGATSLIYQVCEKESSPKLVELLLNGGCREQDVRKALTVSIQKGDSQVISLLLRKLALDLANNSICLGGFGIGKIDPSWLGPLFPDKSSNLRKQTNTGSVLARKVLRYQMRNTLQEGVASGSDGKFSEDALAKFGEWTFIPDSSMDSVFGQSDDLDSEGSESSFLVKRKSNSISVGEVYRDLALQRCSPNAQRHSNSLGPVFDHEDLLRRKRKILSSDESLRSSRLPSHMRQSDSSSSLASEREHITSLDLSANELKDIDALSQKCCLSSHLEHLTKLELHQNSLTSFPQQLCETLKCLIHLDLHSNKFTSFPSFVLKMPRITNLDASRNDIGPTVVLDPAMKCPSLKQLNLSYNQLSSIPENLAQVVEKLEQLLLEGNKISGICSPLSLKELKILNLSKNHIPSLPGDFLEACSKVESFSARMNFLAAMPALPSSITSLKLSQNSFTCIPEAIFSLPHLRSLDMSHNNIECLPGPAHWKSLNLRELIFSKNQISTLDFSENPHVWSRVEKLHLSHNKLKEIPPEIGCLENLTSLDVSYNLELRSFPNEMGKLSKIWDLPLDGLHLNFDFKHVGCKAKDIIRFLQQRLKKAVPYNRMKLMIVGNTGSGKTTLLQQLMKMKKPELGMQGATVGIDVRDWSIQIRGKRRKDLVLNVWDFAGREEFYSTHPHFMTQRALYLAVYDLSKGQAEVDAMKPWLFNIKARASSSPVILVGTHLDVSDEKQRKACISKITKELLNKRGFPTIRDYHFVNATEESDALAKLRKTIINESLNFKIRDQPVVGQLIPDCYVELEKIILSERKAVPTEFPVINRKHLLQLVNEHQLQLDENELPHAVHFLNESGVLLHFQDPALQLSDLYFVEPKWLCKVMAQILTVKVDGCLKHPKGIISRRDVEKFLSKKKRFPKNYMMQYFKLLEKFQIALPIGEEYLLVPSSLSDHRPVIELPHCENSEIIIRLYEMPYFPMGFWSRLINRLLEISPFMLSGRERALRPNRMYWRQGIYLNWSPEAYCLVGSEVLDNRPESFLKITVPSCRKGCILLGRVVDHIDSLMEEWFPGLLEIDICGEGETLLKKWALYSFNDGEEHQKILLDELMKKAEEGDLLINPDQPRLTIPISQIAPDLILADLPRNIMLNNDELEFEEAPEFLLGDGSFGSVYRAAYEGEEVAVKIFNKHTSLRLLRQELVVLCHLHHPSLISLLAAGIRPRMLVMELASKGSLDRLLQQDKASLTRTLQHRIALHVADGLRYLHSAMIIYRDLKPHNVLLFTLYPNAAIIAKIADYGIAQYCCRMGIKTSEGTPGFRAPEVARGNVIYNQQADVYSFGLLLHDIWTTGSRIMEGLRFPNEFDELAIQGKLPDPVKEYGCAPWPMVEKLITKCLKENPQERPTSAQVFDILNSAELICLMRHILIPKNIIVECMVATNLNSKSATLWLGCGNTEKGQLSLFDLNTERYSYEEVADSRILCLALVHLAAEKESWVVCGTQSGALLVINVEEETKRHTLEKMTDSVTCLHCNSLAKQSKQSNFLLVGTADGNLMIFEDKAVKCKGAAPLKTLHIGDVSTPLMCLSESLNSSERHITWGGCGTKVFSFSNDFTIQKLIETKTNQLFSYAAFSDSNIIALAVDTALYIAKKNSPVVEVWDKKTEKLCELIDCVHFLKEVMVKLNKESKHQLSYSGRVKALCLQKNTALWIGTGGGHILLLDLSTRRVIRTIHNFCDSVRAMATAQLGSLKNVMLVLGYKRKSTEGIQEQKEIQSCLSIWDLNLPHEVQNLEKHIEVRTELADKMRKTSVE

LRRK2 = conditions: cited from earlier work
GCK = molecular target: T2, GCK (Homo sapiens, UniProt Q12851); test: Kinase profiling panel; format: biochemical; conditions: read-out: percentage of kinase activity compared with control
T2 sequence (Q12851 1-820): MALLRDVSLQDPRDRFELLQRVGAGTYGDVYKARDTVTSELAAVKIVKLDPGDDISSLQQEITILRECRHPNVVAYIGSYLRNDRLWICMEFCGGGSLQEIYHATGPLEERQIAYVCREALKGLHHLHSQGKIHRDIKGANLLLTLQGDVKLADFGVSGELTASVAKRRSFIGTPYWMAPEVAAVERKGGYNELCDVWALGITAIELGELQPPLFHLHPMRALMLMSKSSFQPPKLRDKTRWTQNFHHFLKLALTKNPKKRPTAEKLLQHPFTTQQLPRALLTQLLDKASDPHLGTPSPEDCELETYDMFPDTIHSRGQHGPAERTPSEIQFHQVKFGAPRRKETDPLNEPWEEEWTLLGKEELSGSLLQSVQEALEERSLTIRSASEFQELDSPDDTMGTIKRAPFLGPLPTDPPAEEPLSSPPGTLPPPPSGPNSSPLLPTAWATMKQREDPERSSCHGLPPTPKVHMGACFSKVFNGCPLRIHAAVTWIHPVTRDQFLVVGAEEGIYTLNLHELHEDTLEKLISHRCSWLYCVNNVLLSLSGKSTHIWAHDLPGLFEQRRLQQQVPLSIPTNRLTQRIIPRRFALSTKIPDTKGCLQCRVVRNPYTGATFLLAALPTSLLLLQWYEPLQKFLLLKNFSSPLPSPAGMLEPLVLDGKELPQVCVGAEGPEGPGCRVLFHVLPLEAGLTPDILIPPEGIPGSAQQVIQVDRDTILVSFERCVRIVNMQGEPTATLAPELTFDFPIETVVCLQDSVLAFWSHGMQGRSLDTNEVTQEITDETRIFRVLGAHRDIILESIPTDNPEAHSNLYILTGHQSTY

SGK1 = molecular target: T3, SGK1 (Homo sapiens, UniProt O00141); test: Kinase profiling panel; format: biochemical; conditions: read-out: percentage of kinase activity compared with control
T3 sequence (O00141 1-431): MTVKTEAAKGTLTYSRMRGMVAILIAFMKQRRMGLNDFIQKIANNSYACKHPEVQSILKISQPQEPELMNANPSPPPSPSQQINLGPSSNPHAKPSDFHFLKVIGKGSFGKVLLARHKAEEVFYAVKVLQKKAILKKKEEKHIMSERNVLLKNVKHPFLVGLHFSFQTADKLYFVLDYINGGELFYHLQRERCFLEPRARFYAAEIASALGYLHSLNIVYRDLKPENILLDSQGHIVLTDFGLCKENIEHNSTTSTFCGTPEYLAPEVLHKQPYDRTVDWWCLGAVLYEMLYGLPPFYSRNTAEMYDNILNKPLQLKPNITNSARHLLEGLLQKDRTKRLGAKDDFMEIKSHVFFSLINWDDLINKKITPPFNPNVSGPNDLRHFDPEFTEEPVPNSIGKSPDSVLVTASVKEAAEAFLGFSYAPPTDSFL

PHK = PHK (Homo sapiens, UniProt Q16816); test: Kinase profiling panel; format: biochemical; conditions: read-out: percentage of kinase activity compared with control
TTK = molecular target: T4, TTK (Homo sapiens, UniProt P33981); test: Kinase profiling panel; format: biochemical; conditions: read-out: percentage of kinase activity compared with control
T4 sequence (P33981 1-857): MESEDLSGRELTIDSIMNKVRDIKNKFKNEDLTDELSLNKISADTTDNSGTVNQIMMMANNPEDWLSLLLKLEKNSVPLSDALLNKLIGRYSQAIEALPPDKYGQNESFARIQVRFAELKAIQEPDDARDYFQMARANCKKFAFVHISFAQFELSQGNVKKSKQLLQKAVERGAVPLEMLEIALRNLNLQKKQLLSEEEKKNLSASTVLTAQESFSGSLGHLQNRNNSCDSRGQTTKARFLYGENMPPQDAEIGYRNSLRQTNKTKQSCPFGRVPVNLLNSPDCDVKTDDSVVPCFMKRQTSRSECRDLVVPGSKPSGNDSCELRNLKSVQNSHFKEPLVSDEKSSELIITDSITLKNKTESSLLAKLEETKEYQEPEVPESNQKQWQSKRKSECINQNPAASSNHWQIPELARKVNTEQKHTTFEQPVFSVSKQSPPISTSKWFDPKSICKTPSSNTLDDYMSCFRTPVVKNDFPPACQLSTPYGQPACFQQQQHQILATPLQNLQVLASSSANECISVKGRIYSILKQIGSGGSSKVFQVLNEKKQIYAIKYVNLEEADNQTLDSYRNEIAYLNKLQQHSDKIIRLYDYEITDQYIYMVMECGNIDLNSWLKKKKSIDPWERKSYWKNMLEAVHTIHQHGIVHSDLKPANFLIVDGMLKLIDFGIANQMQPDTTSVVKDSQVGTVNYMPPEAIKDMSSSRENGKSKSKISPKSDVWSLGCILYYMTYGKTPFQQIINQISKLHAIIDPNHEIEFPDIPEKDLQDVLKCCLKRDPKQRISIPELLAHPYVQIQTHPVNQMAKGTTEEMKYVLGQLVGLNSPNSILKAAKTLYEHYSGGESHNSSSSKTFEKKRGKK

AMPK = test: Kinase profiling panel; format: biochemical; conditions: 0.1 μM inhibitor
CK2 = CK2 (Homo sapiens, UniProt P68400); test: Kinase profiling panel; format: biochemical; conditions: read-out: percentage of kinase activity compared with control
Sequence of CK2 (P68400 whole entry): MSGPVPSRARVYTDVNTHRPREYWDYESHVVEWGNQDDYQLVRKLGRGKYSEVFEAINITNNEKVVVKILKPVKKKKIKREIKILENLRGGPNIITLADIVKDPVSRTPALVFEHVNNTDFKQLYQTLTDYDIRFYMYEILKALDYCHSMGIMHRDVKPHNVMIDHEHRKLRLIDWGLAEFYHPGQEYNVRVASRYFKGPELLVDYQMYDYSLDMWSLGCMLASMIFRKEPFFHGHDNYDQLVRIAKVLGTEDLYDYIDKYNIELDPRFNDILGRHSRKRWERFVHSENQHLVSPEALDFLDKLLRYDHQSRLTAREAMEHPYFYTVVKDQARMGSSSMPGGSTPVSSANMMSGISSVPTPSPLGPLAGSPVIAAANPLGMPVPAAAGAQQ

PAK4 = PAK4 (Homo sapiens, UniProt O96013); test: Kinase profiling panel; format: biochemical; conditions: read-out: percentage of kinase activity compared with control
FGFR1 = FGFR1 (Homo sapiens, UniProt P11362); test: Kinase profiling panel; format: biochemical; conditions: read-out: percentage of kinase activity compared with control
Aurora B kinase = Aurora B kinase (Homo sapiens, UniProt Q96GD4); test: Kinase profiling panel; format: biochemical; conditions: read-out: percentage of kinase activity compared with control
PKCα = PKCα (Homo sapiens, UniProt P17252); test: Kinase profiling panel; format: biochemical; conditions: read-out: percentage of kinase activity compared with control
IRR = IRR (Homo sapiens, UniProt P14616); test: Kinase profiling panel; format: biochemical; conditions: read-out: percentage of kinase activity compared with control
Sequence of IRR (P14616 27-1297): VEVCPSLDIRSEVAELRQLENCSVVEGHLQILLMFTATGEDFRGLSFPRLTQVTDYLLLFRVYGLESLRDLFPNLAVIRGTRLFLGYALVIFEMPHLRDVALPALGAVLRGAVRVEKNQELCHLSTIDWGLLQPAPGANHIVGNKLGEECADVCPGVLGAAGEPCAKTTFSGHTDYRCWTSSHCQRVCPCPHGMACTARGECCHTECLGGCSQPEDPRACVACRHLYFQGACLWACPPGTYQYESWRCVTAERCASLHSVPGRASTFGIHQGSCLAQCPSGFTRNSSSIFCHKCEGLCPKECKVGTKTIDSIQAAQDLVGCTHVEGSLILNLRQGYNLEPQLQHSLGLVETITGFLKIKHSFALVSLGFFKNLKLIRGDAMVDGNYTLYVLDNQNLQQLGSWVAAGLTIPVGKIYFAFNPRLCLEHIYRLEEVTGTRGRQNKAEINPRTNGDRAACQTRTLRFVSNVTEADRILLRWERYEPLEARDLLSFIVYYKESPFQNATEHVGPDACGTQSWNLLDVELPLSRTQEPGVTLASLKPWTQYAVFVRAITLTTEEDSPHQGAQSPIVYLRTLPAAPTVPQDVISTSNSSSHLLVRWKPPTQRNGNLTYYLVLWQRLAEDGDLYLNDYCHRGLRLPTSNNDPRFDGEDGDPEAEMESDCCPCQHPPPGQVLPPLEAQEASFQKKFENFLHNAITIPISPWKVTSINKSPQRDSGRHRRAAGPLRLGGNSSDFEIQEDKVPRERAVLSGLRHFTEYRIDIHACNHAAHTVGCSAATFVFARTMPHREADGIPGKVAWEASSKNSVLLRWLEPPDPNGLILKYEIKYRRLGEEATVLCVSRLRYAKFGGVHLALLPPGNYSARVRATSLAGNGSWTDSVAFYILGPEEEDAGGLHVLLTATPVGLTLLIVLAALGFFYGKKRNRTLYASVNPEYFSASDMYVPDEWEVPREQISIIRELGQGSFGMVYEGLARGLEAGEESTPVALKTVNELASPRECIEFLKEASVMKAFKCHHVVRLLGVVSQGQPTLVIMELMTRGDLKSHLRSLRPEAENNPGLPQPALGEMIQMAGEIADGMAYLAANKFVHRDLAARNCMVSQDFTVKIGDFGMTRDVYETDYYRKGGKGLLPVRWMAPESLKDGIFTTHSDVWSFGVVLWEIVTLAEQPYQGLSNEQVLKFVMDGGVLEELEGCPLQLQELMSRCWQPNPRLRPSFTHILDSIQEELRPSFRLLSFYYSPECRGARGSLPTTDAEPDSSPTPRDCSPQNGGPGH

BRSK2 = molecular target: T5, BRSK2 (Homo sapiens, UniProt Q8IWQ3); test: Kinase profiling panel; format: biochemical; conditions: read-out: percentage of kinase activity compared with control
T5 sequence (Q8IWQ3 1-736): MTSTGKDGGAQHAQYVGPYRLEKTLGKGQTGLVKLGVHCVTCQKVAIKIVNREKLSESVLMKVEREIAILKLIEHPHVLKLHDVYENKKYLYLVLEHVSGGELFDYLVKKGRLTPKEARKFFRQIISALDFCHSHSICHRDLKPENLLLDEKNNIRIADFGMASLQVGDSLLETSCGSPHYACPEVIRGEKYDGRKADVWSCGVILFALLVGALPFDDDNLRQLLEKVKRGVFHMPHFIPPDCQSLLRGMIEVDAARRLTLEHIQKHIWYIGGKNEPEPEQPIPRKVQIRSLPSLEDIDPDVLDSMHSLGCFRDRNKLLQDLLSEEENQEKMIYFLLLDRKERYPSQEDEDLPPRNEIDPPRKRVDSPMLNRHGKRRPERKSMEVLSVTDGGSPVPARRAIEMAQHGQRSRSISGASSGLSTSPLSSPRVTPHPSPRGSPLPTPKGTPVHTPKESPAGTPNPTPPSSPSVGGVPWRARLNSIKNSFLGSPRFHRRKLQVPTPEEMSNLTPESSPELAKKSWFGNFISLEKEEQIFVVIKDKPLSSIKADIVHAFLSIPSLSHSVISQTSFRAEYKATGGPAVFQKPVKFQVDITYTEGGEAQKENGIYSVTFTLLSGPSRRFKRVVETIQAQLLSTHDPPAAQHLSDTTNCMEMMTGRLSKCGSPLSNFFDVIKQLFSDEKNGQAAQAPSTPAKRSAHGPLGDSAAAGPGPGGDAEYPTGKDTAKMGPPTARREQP

IGF-1R = IGF-1R (Homo sapiens, UniProt P08069); test: Kinase profiling panel; format: biochemical; conditions: read-out: percentage of kinase activity compared with control
SmMLCK = SmMLCK (Homo sapiens, UniProt Q15746); test: Kinase profiling panel; format: biochemical; conditions: read-out: percentage of kinase activity compared with control

CCn1c(-c2nonc2N)nc2cnc(Oc3cccc(NC(=O)c4ccc(OCCN5CCOCC5)cc4)c3)cc21 [GSK269962A]
effect on phosphorylation of MYPT at Thr850 [1]: ablated phosphorylation | effect on ERM protein phosphorylation [2]: did not inhibit | number of kinases significantly inhibited [3]: seven

CC1=C(C(=O)Nc2cc3cn[nH]c3cc2F)C(c2ccc(C(F)(F)F)cc2)CC(=O)N1 (stereo not shown) [GSK429286A]
effect on phosphorylation of MYPT at Thr850 [1]: ablated phosphorylation | effect on ERM protein phosphorylation [2]: did not inhibit | inhibition of LRRK2 at high dose (in words) ([4]; doses as high as 30 μM): does not significantly inhibit

O=S(=O)(NCCNCC=Cc1ccc(Br)cc1)c1cccc2cnccc12 [H-89, N-[2-(p-bromocinnamylamino)ethyl]-5-isoquinolinesulfonamide]
inhibition of LRRK2[G2019S] (in words) [4]: weakly

Cc1cncc2cccc(S(=O)(=O)N3CCCNC[C@@H]3C)c12 [H-1152, (S)-(+)-2-methyl-1-[(4-methyl-5-isoquinoline)sulfonyl]-homopiperazine]
effect on phosphorylation of MYPT at Thr850 [1]: ablated phosphorylation | effect on protein kinase activity in LRRK2 immunoprecipitate [5]: suppressed | effect on ERM protein phosphorylation [2]: did not inhibit

O=S(=O)(c1cccc2cnccc12)N1CCCNCC1 [HA-1077, fasudil]
inhibition of LRRK2[G2019S] (in words) [4]: weakly

CCN(CC)CCNC(=O)c1c(C)[nH]c(/C=C2\C(=O)Nc3ccc(F)cc32)c1C [Sunitinib, sunitinib]
IC50 (LRRK2): […] | remaining activity at 1 µM (GCK): 11 ± 1% | remaining activity at 1 µM (SGK1): 26 ± 5% | remaining activity at 0.1 µM (PHK): 11 ± 1% | remaining activity at 1 µM (TTK): 72 ± 6% | effect on protein kinase activity in LRRK2 immunoprecipitate [5]: suppressed | percentage of kinase activity compared with control (AMPK): 51 ± 3% | remaining activity at 1 µM (CK2): 72 ± 1% | remaining activity at 1 µM (PAK4): 72 ± 5% | remaining activity at 0.1 µM (FGFR1): 77 ± 2% | effect on ERM protein phosphorylation [2]: did not inhibit | remaining activity at 0.1 µM (Aurora B kinase): 72 ± 5% | remaining activity at 1 µM (PKCα): 77 ± 9% | number of kinases significantly inhibited [3]: 12 | remaining activity at 1 µM (IRR): 77 ± 24% | remaining activity at 1 µM (BRSK2): 40 ± 6% | remaining activity at 1 µM (IGF-1R): 33 ± 6% | remaining activity at 1 µM (SmMLCK): 26 ± 3%

C[C@@H](N)[C@H]1CC[C@H](C(=O)Nc2ccncc2)CC1 [Y-27632]
effect on phosphorylation of MYPT at Thr850 [1]: ablated phosphorylation | effect on ERM protein phosphorylation [2]: did not inhibit
